Assay results from patent publication US4175125A, “Method for treating methicillin resistant staphylococcus aureus” (Eli Lilly and Company, priority 1978, dated 1979).
Where a name gives a salt, the structure may show the parent alone. Read-outs that look alike come from different tables or passages of the source.

Test system: Staphylococcus aureus cultures
Assay: Modified Bauer-Kirby Disc Susceptibility Test (Example 11)
Assay type: cell-based
Design: zone of inhibition: dose or concentration left out as unconfirmed
Conditions: for zone of inhibition: Staphylococcus aureus; for Change 37°-30°: 30 mg Disc
Procedure: This example exemplifies the antibiotic activity of 7-[2'-(3"-chloro-4"-fluorophenylthio)acetamido]cephalosporanic acid, a water soluble compound, described in Example 8, against various Staphylococcus aureus cultures, in a modified Bauer-Kirby Disc Susceptibility Test (Bauer, A. W., W. M. M. Kirby, J. C. Sherris, and M. Turck, 1966, Amer. J. Clin. Pathol. 45:493-496). In this test the cultures were incubated at both 37° C. or 30° C. […] 16, 1968, the heterogeneity of methicilllin-resistant S. aureus is manifested by incubation at 30° C.

CC(=O)OCC1=C(C(=O)O)N2C(=O)C(NC(=O)CSc3ccc(F)c(Cl)c3)C2SC1 (stereo not drawn) [Example 8, 7-(3'-chloro-4-fluorophenylthioacetamido)cephalosporanic acid, sodium salt]
zone of inhibition (culture 3055 (penicillin sensitive), 30°, read-out: disc susceptibility (zone) at 30°): > 35 mm | zone of inhibition (culture 3055 (penicillin sensitive), 37°, read-out: disc susceptibility (zone) at 37°): > 35 mm | zone of inhibition (culture 3074 (methicillin sensitive, penicillinase producing), 30°, read-out: disc susceptibility (zone) at 30°): 36 mm | zone of inhibition (culture 3074 (methicillin sensitive, penicillinase producing), 37°, read-out: disc susceptibility (zone) at 37°): 36 mm | zone of inhibition (culture 3125 (methicillin resistant), 30°, read-out: disc susceptibility (zone) at 30°): 36 mm | zone of inhibition (culture 3125 (methicillin resistant), 37°, read-out: disc susceptibility (zone) at 37°): 33.8 mm | zone of inhibition (culture 3130 (methicillin resistant), 30°, read-out: disc susceptibility (zone) at 30°): 31 mm | zone of inhibition (culture 3130 (methicillin resistant), 37°, read-out: disc susceptibility (zone) at 37°): 33.2 mm | zone of inhibition (culture 3131 (methicillin resistant), 30°, read-out: disc susceptibility (zone) at 30°): 29 mm | zone of inhibition (culture 3131 (methicillin resistant), 37°, read-out: disc susceptibility (zone) at 37°): 26.6 mm | zone of inhibition (culture 3132 (methicillin resistant), 30°, read-out: disc susceptibility (zone) at 30°): 28 mm | zone of inhibition (culture 3132 (methicillin resistant), 37°, read-out: disc susceptibility (zone) at 37°): 29.4 mm | zone of inhibition (culture 3133 (methicillin resistant), 30°, read-out: disc susceptibility (zone) at 30°): 24.8 mm | zone of inhibition (culture 3133 (methicillin resistant), 37°, read-out: disc susceptibility (zone) at 37°): 27.6 mm | zone of inhibition (culture 3134 (methicillin resistant), 30°, read-out: disc susceptibility (zone) at 30°): 27.8 mm | zone of inhibition (culture 3134 (methicillin resistant), 37°, read-out: disc susceptibility (zone) at 37°): 28 mm | zone of inhibition (culture 3135 (methicillin resistant), 30°, read-out: disc susceptibility (zone) at 30°): 26.2 mm | zone of inhibition (culture 3135 (methicillin resistant), 37°, read-out: disc susceptibility (zone) at 37°): 28.2 mm | zone of inhibition (culture 3136 (methicillin resistant), 30°, read-out: disc susceptibility (zone) at 30°): 31 mm | zone of inhibition (culture 3136 (methicillin resistant), 37°, read-out: disc susceptibility (zone) at 37°): 35 mm | zone of inhibition (culture 3137 (methicillin resistant), 30°, read-out: disc susceptibility (zone) at 30°): 22.1 mm | zone of inhibition (culture 3137 (methicillin resistant), 37°, read-out: disc susceptibility (zone) at 37°): 24.4 mm | zone of inhibition (culture 3138 (methicillin resistant), 30°, read-out: disc susceptibility (zone) at 30°): 25.2 mm | zone of inhibition (culture 3138 (methicillin resistant), 37°, read-out: disc susceptibility (zone) at 37°): 25.6 mm | zone of inhibition (culture 3139 (methicillin resistant), 30°, read-out: disc susceptibility (zone) at 30°): 31.6 mm | zone of inhibition (culture 3139 (methicillin resistant), 37°, read-out: disc susceptibility (zone) at 37°): 34 mm | zone of inhibition (culture 3140 (methicillin resistant), 30°, read-out: disc susceptibility (zone) at 30°): 26.4 mm | zone of inhibition (culture 3140 (methicillin resistant), 37°, read-out: disc susceptibility (zone) at 37°): 28.4 mm | zone of inhibition (culture H232 (methicillin sensitive, penicillinase producing), 30°, read-out: disc susceptibility (zone) at 30°): 34.3 mm | zone of inhibition (culture H232 (methicillin sensitive, penicillinase producing), 37°, read-out: disc susceptibility (zone) at 37°): 33.4 mm | Change 37°-30° (culture 3074): 0 mm | Change 37°-30° (culture 3125): +2.2 mm | Change 37°-30° (culture 3130): -2.2 mm | Change 37°-30° (culture 3131): +2.4 mm | Change 37°-30° (culture 3132): -1.4 mm | Change 37°-30° (culture 3133): -2.8 mm | Change 37°-30° (culture 3134): -0.2 mm | Change 37°-30° (culture 3135): -2.0 mm | Change 37°-30° (culture 3136): -4.0 mm | Change 37°-30° (culture 3137): -2.3 mm | Change 37°-30° (culture 3138): -0.4 mm | Change 37°-30° (culture 3139): -2.4 mm | Change 37°-30° (culture 3140): -2.0 mm | Change 37°-30° (culture H232): +0.9 mm | effectiveness vs cephalothin in disc susceptibility test (incubation at 37° C. or 30° C.): more effective than cephalothin
